Assay [1] relates to sheep liver fluke (Fasciola hepatica). The experiment in a line: Fluke egg count in faeces and adult fluke count in liver of infected sheep after a single s/c dose (Table 3). The assay is classed as in vivo. To be noted: for POST MORTEM RESULT No. of adult fluke: liver. On the procedure: Compositions suitable for use as experimental injectable solutions were prepared by formulating the compounds as solutions of their salts either in water or in a mixture of water and ethylene glycol or water and polyethylene glycol (PEG200).
Compositions prepared by the method of Example 10 were used as a single dose to test sheep infected with sheep liver fluke (Fasciola hepatica). The number of liver fluke eggs in the faeces was measured at the time of treatment and at selected intervals up to 30 days after treatment. The sheep were killed and the number of adult fluke in the liver counted. The amount and structure of the active ingredient in each composition and the results of treatment of a sheep with that composition are given in the Table 3 below. The compositions were administered by sub-cutaneous injection (s/c).

The next assay deals with immature fluke. The experiment in a line: Effectiveness against immature fluke (Table 3 footnotes). Type of assay: in vivo, Fasciola hepatica.
The subject of the next assay is live Fasciola hepatica. The experiment in a line: Minimum effective concentration against live Fasciola hepatica in Hedon-Fleig medium (Table 4). Conditions: in vitro, assessed 24 hours after treatment, read-out: MINIMUM EFFECTIVE CONCENTRATION (minimum concentration required to kill Fasciola hepatica). How it is done:
The minimum effective concentration of compounds of formula I against live Fasciola hepatica was tested by the direct application of the test compound, in solution, to live Fasciola hepatica in Hedon-Fleig medium. The results are given in Table 4 where the minimum effective concentration (minimum concentration required to kill Fasciola hepatica) was assessed 24 hours after treatment with the test compound.

For the molecule `O=[N+]([O-])c1cc(Cl)cc(C(=C(Cl)Cl)c2cc(Cl)cc([N+](=O)[O-])c2O)c1O` [Compound 14], the “FAECAL EGG COUNT, day 7” value in assay [1] (single dose 0.5 mg/kg) worked out at 0 Eggs/g faeces; in assay [1] (single dose 2.0 mg/kg), 60 Eggs/g faeces; in assay [1] (single dose 12.5 mg/kg), 0 Eggs/g faeces. Also, the “FAECAL EGG COUNT, day 14” value in assay [1] (single dose 0.5 mg/kg), in assay [1] (single dose 2.0 mg/kg) and in assay [1] (single dose 12.5 mg/kg) was 0 Eggs/g faeces in each case. Besides, the “POST MORTEM RESULT No. of adult fluke” value in assay [1] (single dose 0.5 mg/kg), in assay [1] (single dose 2.0 mg/kg) and in assay [1] (single dose 12.5 mg/kg) was 0 each time. Moreover, the “effective against immature fluke” value was 90.6% with immature fluke (10 mg/kg) and 100% with immature fluke (15 mg/kg).
Turning to `O=[N+]([O-])c1cc(Br)cc(C(=C(Cl)Cl)c2cc(Br)cc([N+](=O)[O-])c2O)c1O` [Compound 15], the “FAECAL EGG COUNT, day 7” value in assay [1] (single dose 2.0 mg/kg) and in assay [1] (single dose 12.5 mg/kg) was 0 Eggs/g faeces in each case. Further, the “FAECAL EGG COUNT, day 14” value in assay [1] (single dose 2.0 mg/kg) and in assay [1] (single dose 12.5 mg/kg) was 0 Eggs/g faeces in each case. In addition, the “POST MORTEM RESULT No. of adult fluke” value in assay [1] (single dose 2.0 mg/kg) and in assay [1] (single dose 12.5 mg/kg) was 0 in each case. The “effective against immature fluke” value with immature fluke (10 mg/kg) is on record as 91.4%; with immature fluke (15 mg/kg) it was 94%.
Turning to `O=[N+]([O-])c1cccc(COC(c2cc(Cl)cc([N+](=O)[O-])c2O)c2cc(Cl)cc([N+](=O)[O-])c2O)c1` [Compound 39], the minimal effective concentration in the assay with live Fasciola hepatica was 0.5 µg/mL.
`O=[N+]([O-])c1cc(Cl)cc(C(OCc2cc(Cl)cc(Cl)c2)c2cc(Cl)cc([N+](=O)[O-])c2O)c1O` [Compound 41]: the minimal effective concentration in the assay with live Fasciola hepatica was 10 µg/mL.
On to `O=[N+]([O-])c1cc(Cl)cc(C(OCCC(c2ccccc2)c2ccccc2)c2cc(Cl)cc([N+](=O)[O-])c2O)c1O` [Compound 42], for which, in the assay on live Fasciola hepatica, the minimal effective concentration is 1 µg/mL.
`COc1cc(Cl)ccc1COC(c1cc(Cl)cc([N+](=O)[O-])c1O)c1cc(Cl)cc([N+](=O)[O-])c1O` [Compound 43]: the minimal effective concentration in the assay with live Fasciola hepatica is 5 µg/mL.
As for `CC(=O)Nc1ccc(OC(c2cc(Cl)cc([N+](=O)[O-])c2O)c2cc(Cl)cc([N+](=O)[O-])c2O)cc1` [Compound 44], the minimal effective concentration in the assay on live Fasciola hepatica came to 5 µg/mL.
For `CC(C)(C)SC(c1cc(Cl)cc([N+](=O)[O-])c1O)c1cc(Cl)cc([N+](=O)[O-])c1O` [Compound 46], the minimal effective concentration in the assay on live Fasciola hepatica was determined as 0.5 µg/mL.
As for `COc1ccc(CSC(c2cc(Cl)cc([N+](=O)[O-])c2O)c2cc(Cl)cc([N+](=O)[O-])c2O)cc1` [Compound 48], the minimal effective concentration in the assay with live Fasciola hepatica was determined as 1 µg/mL.
On to `O=[N+]([O-])c1cc(Cl)cc(C(SCc2ccc(Cl)cc2)c2cc(Cl)cc([N+](=O)[O-])c2O)c1O` [Compound 49], for which, in the assay on live Fasciola hepatica, the minimal effective concentration amounted to 1.5 µg/mL.
The same measure, in the same setting: to `O=[N+]([O-])c1ccc(SC(c2cc(Cl)cc([N+](=O)[O-])c2O)c2cc(Cl)cc([N+](=O)[O-])c2O)cc1` [Compound 52] belongs 1 µg/mL.
`O=[N+]([O-])c1cc(Cl)cc(C(c2cc(Cl)cc([N+](=O)[O-])c2O)C(F)(F)F)c1O` [Compound 53, 1,1-Bis(5-chloro-2-hydroxy-3-nitrophenyl)-2,2,2-trifluoroethane]: in assay [1] (single dose 3.0 mg/kg), the “FAECAL EGG COUNT, day 7” value is recorded as 460 Eggs/g faeces; the “FAECAL EGG COUNT, day 14” value stood at 0 Eggs/g faeces; the “POST MORTEM RESULT No. of adult fluke” value was 0. Besides, in assay [1] (single dose 6.0 mg/kg), the “FAECAL EGG COUNT, day 7” value turned out to be 0 Eggs/g faeces; the “FAECAL EGG COUNT, day 14” value is 0 Eggs/g faeces; the “POST MORTEM RESULT No. of adult fluke” value is 0. In addition, the “effective against immature fluke” value in the assay on immature fluke (15 mg/kg) turned out to be 97%.
Take `O=[N+]([O-])c1cc(Cl)cc(C(c2cc(Cl)cc([N+](=O)[O-])c2O)C(F)(F)C(F)(F)F)c1O` [Compound 54]: in assay [1] (single dose 2.0 mg/kg), the “FAECAL EGG COUNT, day 7” value stood at 10 Eggs/g faeces; the “FAECAL EGG COUNT, day 14” value is reported as 0 Eggs/g faeces; the “POST MORTEM RESULT No. of adult fluke” value stood at 0. Moreover, in assay [1] (single dose 6.0 mg/kg), the “FAECAL EGG COUNT, day 7” value came out at 0 Eggs/g faeces; the “FAECAL EGG COUNT, day 14” value is on record as 0 Eggs/g faeces; the “POST MORTEM RESULT No. of adult fluke” value is given as 0. In addition, the “effective against immature fluke” value with immature fluke (15 mg/kg) amounted to 83%.
As for `O=[N+]([O-])c1cc(Br)cc(C(c2cc(Br)cc([N+](=O)[O-])c2O)C(F)(F)F)c1O` [Compound 56], in assay [1] (single dose 6.0 mg/kg), the “FAECAL EGG COUNT, day 7” value is given as 10 Eggs/g faeces; the “FAECAL EGG COUNT, day 14” value was found to be 0 Eggs/g faeces; the “POST MORTEM RESULT No. of adult fluke” value came out at 0. Moreover, in the assay on live Fasciola hepatica, the minimal effective concentration came out at 1 µg/mL.

These data come from US4251546A, “Process for killing internal helminths using certain 1,1-bis-(2-substituted-3-nitrophenyl)alkane or alkylene derivatives” (ICI Australia Limited, priority 1977, dated 1981).
